{"source": "patent US20170281710A1", "about": "“USE OF INHIBITORS OF BINDING BETWEEN A PAR-1 RECEPTOR AND ITS LIGANDS FOR THE TREATMENT OF GLIOMA” (University of Rochester, priority 2013, published 2017)", "key": {"[1]": {"system": "A2B5+ glioma TPCs (GCL) subcutaneous xenograft", "assay": "subcutaneous heterotopic A2B5+ glioma TPC xenograft, tumor volume", "format": "in vivo, immunodeficient NOG mice", "conditions": "37.5 mg/kg twice daily, oral gavage, starting 11 days post-subcutaneous injection, NOG mice", "experimental": "(§1) Dabigatran etexilate (Pradaxa) was obtained as 150 mg capsules from Boehringer Ingelheim (Ingelheim, Germany) for in vivo experiments. Each capsule was freshly dissolved in 4 ml of acidic water to yield 37.5 mg/ml. Dabigatran etexilate was dosed depending of the body weight of the mouse, twice a day, using oral gavage. For in vitro analysis, the chemical compound dabigatran etexilate (BIER-1048) was purchased from Cedarlane USA (S2154-5 mg) and dissolved in dimethylsulfoxide (DMSO) following manufacturer's instructions.\nGlioma cells and/or A2B5^+ TPCs (1-4E^+06 cells/animal) were collected, resuspended in 75 μl of media, and mixed (1:1) with Matrigel (9.8 mg/ml), prior to subcutaneous injection (150 μl, final volume) into the flanks of immunodeficient NOG mice (5-8 weeks) (1-4E^+06 cells/animal). Subcutaneous tumor growth was measured every other day morphometrically using vernier calipers, and tumor volumes were estimated according to the formula a^2b/2, where a and b are the shorter and longer diameters of the tumor, respectively. […] The remaining mice were gavaged at the same times with vehicle control (acidic water). […]\nTo translate these findings into a clinically relevant approach, the anti-tumor activity of dabigatran was further evaluated in vivo. […] Tumor volume was then measured every other day using vernier calipers. […]"}, "[2]": {"system": "A2B5+ glioma TPCs (GCL) isolated from GBM-derived cell lines", "assay": "in vitro expansion of A2B5+ glioma TPCs (GCL), cell count after escalating doses", "format": "cell-based, human", "conditions": "for concentration at which a significant decrease in number of A2B5+ TPCs was observed: escalating doses, vs vehicle; for effect on growth / number (in vitro expansion) of A2B5+ glioma TPCs: serum-free media with FGF, EGF, PDGF, 4 days after administration, vs DMSO vehicle", "experimental": "After dissociation, unsorted and A2B5 selected primary cells derived from tumor samples were seeded in a 6 well cell suspension plate at 100,000-200,000 cells/ml in DMEM/F12/N1 media containing FGF, EGF and PDGF (20 ng/ml) as previously described (Nunes et al., “Identification and Isolation of Multipotential Neural Progenitor Cells from the Subcortical White Matter of the Adult Human Brain,” Nat Med 9:439-447 (2003), which is hereby incorporated by reference in their entirety). Growth factors and media were renewed 3 times per week. […] The cells were tumorigenic in vivo after transplantation into the brains of immunodeficient mice, in which they generated tumors that recapitulated the histological and phenotypic features of the parental GBM.\nas §1\n(§2) The selective PAR-1 antagonist SCH79797 was purchased from Tocris Bioscience (Ellisville, Mo., USA) and dissolved in dimethylsulfoxide (DMSO) following manufacturer's instructions. The selective oral PAR-1 inhibitor SCH 530348 (Vorapaxar) was purchased from Axon medchem (Axon 1755) and reconstituted following manufacturer's instructions.\n(§3) The various physiological and pathophysiological effects exerted by PAR-1 activation have led to the development of multiple selective PAR-1 antagonists over the years (Garcia-Lopez et al., “Thrombin-Activated Receptors: Promising Targets for Cancer Therapy?” Curr Med Chem 17:109-128 (2010), which is hereby incorporated by reference in its entirety). […] On that basis, it was further asked whether pharmacological inhibition of PAR-1 can slow the growth of glioma cells and A2B5^+ TPCs. Adherent glioma cells grown in 10% Serum (U87, U251) and A2B5^+ TPCs derived from primary GBM cell lines cultured in SFM were subjected to escalating doses of the PAR-1 antagonists SCH-79797.\n(§4) Indeed, SCH-530348 represents currently the most advanced and orally available specific PAR-1 antagonist, and has been evaluated in two large phase III clinical trials in patients with cardiovascular disease. […] To examine its effect on glioma cells and TPCs, SCH-530348 was administrated with escalating doses to glioma cells following the same paradigm previously described. […] Importantly, normal adult astrocytes were not affected by SCH-530348 administration (FIG. 6C).\n(§5) Given the availability of already approved and relatively safe drugs by which the thrombin may be antagonized, the effect of pharmacological inhibition of thrombin using the oral inhibitor dabigatran etexilate (dabigatran) in vitro was next examined. Dabigatran (marketed as Pradaxa) is an oral inhibitor of thrombin, approved for use in patients with or at risk of thrombotic disorders (Lee and Ansell, “Direct Thrombin Inhibitors,” Br J Clin Pharmacol 72:581-592 (2011); Stangier, “Clinical Pharmacokinetics and Pharmacodynamics of the Oral Direct Thrombin Inhibitor Dabigatran Etexilate,” Clin Pharmacokinet 47:285-295 (2008), which are hereby incorporated by reference in their entirety). […] To examine whether dabigatran treatment might suppress the growth of glial neoplasms, glioma cells and TPCs were treated with escalating doses of dabigatran and counted 4 days after drug administration."}, "breast carcinoma cells": {"system": "breast carcinoma cells", "conditions": "literature; cited from earlier work"}, "[3]": {"system": "normal astrocytes derived from the fetal human brain", "assay": "growth of normal fetal astrocytes in vitro", "format": "cell-based", "conditions": "for concentrations at which growth of normal fetal astrocytes is slightly decreased / effect on growth of normal fetal astrocytes: 4 days after administration"}, "[4]": {"system": "adherent glioma cells (U87, U251)", "assay": "in vitro expansion of adherent glioma cells cultured with 10% serum", "format": "cell-based, human", "conditions": "for effect on growth / number of adherent glioma cells (U87, U251): 4 days after administration, vs DMSO vehicle; for concentration at which a significant decrease in number of adherent glioma cells was observed: escalating doses", "experimental": "as §1, §2, §3, §4, §5"}, "[5]": {"system": "normal astrocytes derived from the adult human brain", "assay": "growth of normal adult astrocytes in vitro", "format": "cell-based", "conditions": "4 days after administration"}, "angiogenesis": {"system": "angiogenesis", "conditions": "literature; cited from earlier work"}, "[6]": {"system": "several human and mouse cell lines", "conditions": "literature; cited from earlier work"}, "[7]": {"conditions": "literature; cited from earlier work"}, "[8]": {"conditions": "stable patients with a history of myocardial infarction; literature; cited from earlier work"}}, "note": "Entries after “also recorded” stand apart in the source; their conditions may differ.", "data": [{"smiles": "CCCCCCOC(=O)NC(=N)c1ccc(NCc2nc3cc(C(=O)N(CCC(=O)OCC)c4ccccn4)ccc3n2C)cc1", "note": "[dabigatran etexilate]", "values": [{"measurement": "effect on tumor volumes compared to vehicle controls", "setting": "[1]", "result": "significant reduction in tumor volumes; also recorded: significantly suppressed glioma growth; also recorded: significantly reduced tumor volumes"}, {"measurement": "effect on tumor volumes compared to vehicle controls", "setting": "[1]; listed as Pradaxa", "result": "significantly reduce the tumor volumes"}, {"measurement": "concentration at which a significant decrease in number of A2B5+ TPCs was observed", "setting": "[2]", "result": 5, "unit": "µM"}, {"measurement": "effect on growth / number (in vitro expansion) of A2B5+ glioma TPCs", "setting": "[2]", "result": "suppressed the growth and proliferation of glioma TPCs in vitro"}, {"measurement": "effect on growth / number (in vitro expansion) of A2B5+ glioma TPCs", "setting": "[2]; listed as Dabigatran etexilate", "result": "significantly decreases the number of GCL and glioma cells in a dose dependent manner"}, {"measurement": "effect on growth / number (in vitro expansion) of A2B5+ glioma TPCs", "setting": "[2]; listed as dabigatran", "result": "decreased in vitro expansion in a dose dependent manner; also recorded: potent inhibitors of glioma growth in vitro"}, {"measurement": "breast cancer progression", "setting": "breast carcinoma cells", "result": "reduce breast cancer progression"}, {"measurement": "invasiveness of breast carcinoma cells in mice", "setting": "breast carcinoma cells", "result": "inhibits the invasiveness of breast carcinoma cells"}, {"measurement": "concentrations at which growth of normal fetal astrocytes is slightly decreased", "setting": "[3]", "result": "> 0.5", "unit": "µM"}, {"measurement": "effect on growth of normal fetal astrocytes", "setting": "[3]; listed as Dabigatran etexilate", "result": "slightly decreases the growth of normal fetal astrocytes"}, {"measurement": "effect on growth of normal fetal astrocytes", "setting": "[3]; listed as dabigatran", "result": "not significantly affected"}, {"measurement": "effect on growth / number of adherent glioma cells (U87, U251)", "setting": "[4]; listed as Dabigatran etexilate", "result": "significantly decreases the number of GCL and glioma cells in a dose dependent manner"}, {"measurement": "effect on growth / number of adherent glioma cells (U87, U251)", "setting": "[4]; listed as dabigatran", "result": "decreased in vitro expansion in a dose dependent manner"}, {"measurement": "concentration at which a significant decrease in number of adherent glioma cells was observed", "setting": "[4]", "result": "≥ 10", "unit": "µM"}, {"measurement": "effect on growth of normal adult astrocytes", "setting": "[5]; listed as Dabigatran etexilate", "result": "did not affect the growth of normal adult astrocytes"}, {"measurement": "effect on growth of normal adult astrocytes", "setting": "[5]; listed as dabigatran", "result": "not significantly affected"}]}, {"smiles": "CC(C)c1ccc(Cn2ccc3c4c(N)nc(NC5CC5)nc4ccc32)cc1", "note": "[SCH79797, N3-Cyclopropyl-7-[[4-(1-Methylethyl)Phenyl]Methyl]-7H-Pyrrolo[3,2-f]Quinazoline-1,3-Diamine]", "values": [{"measurement": "anti-angiogenic activity in vivo", "setting": "angiogenesis", "result": "potent anti-angiogenic in vivo"}, {"measurement": "concentration at which a significant decrease in number of A2B5+ TPCs was observed", "setting": "[2]", "result": "≥ 0.1", "unit": "µM"}, {"measurement": "effect on growth / number (in vitro expansion) of A2B5+ glioma TPCs", "setting": "[2]", "result": "potent inhibitors of glioma growth in vitro; also recorded: suppressed the growth and proliferation of glioma TPCs in vitro; also recorded: significantly decreases the number of GCL and glioma cells in a dose dependent manner"}, {"measurement": "effect on growth / number (in vitro expansion) of A2B5+ glioma TPCs", "setting": "[2]; listed as SCH-79797", "result": "significant concentration dependent inhibition of cell growth"}, {"measurement": "effect on proliferation, migration and growth of several human and mouse cell lines", "setting": "[6]", "result": "showed anti-proliferative effects, blocked cell migration and growth"}, {"measurement": "effect on growth of normal fetal astrocytes", "setting": "[3]", "result": "did not affect the growth of normal fetal and adult astrocytes"}, {"measurement": "effect on growth of normal fetal astrocytes", "setting": "[3]; listed as SCH-79797", "result": "able to slow the growth of normal fetal astrocytes"}, {"measurement": "concentration at which a significant decrease in number of fetal astrocytes was observed", "setting": "[3]; escalating doses", "result": "≥ 0.5", "unit": "µM"}, {"measurement": "effect on growth / number of adherent glioma cells (U87, U251)", "setting": "[4]", "result": "significantly decreases the number of GCL and glioma cells in a dose dependent manner"}, {"measurement": "effect on growth / number of adherent glioma cells (U87, U251)", "setting": "[4]; listed as SCH-79797", "result": "significant concentration dependent inhibition of cell growth"}, {"measurement": "concentration at which a significant decrease in number of adherent glioma cells was observed", "setting": "[4]", "result": "≥ 0.1", "unit": "µM"}, {"measurement": "effect on growth of normal adult astrocytes", "setting": "[5]", "result": "did not affect the growth of normal fetal and adult astrocytes"}, {"measurement": "effect on growth of normal adult astrocytes", "setting": "[5]; listed as SCH-79797", "result": "no significant differences"}]}, {"smiles": "CCOC(=O)N[C@@H]1CC[C@@H]2[C@@H](C1)C[C@H]1C(=O)O[C@H](C)[C@H]1[C@H]2/C=C/c1ccc(-c2cccc(F)c2)cn1", "note": "[SCH530348, Vorapaxar]", "values": [{"measurement": "concentration at which a significant decrease in number of A2B5+ TPCs was observed", "setting": "[2]", "result": "≥ 5", "unit": "µM"}, {"measurement": "effect on growth / number (in vitro expansion) of A2B5+ glioma TPCs", "setting": "[2]", "result": "potent inhibitors of glioma growth in vitro; also recorded: suppressed the growth and proliferation of glioma TPCs in vitro; also recorded: significantly decreases the number of GCL and glioma cells in a dose dependent manner"}, {"measurement": "effect on growth / number (in vitro expansion) of A2B5+ glioma TPCs", "setting": "[2]; listed as SCH-530348", "result": "significantly reduced the growth"}, {"measurement": "concentrations at which growth of normal fetal astrocytes is slightly decreased", "setting": "[3]", "result": "> 0.5", "unit": "µM"}, {"measurement": "effect on growth of normal fetal astrocytes", "setting": "[3]", "result": "slightly decreases the growth of normal fetal astrocytes"}, {"measurement": "effect on growth / number of adherent glioma cells (U87, U251)", "setting": "[4]", "result": "significantly decreases the number of GCL and glioma cells in a dose dependent manner"}, {"measurement": "effect on growth / number of adherent glioma cells (U87, U251)", "setting": "[4]; listed as SCH-530348", "result": "significant decrease in the number of glioma cells"}, {"measurement": "concentration at which a significant decrease in number of adherent glioma cells was observed", "setting": "[4]", "result": 25, "unit": "µM"}, {"measurement": "oral bioavailability", "setting": "[7]", "result": "excellent"}, {"measurement": "safety", "setting": "[7]", "result": "excellent"}, {"measurement": "major cardiovascular thrombotic events", "setting": "[8]", "result": "significantly reduced major cardiovascular thrombotic events"}, {"measurement": "effect on growth of normal adult astrocytes", "setting": "[5]", "result": "did not affect the growth of normal adult astrocytes"}, {"measurement": "effect on growth of normal adult astrocytes", "setting": "[5]; listed as SCH-530348", "result": "not affected"}]}]}
